Read-outs that look alike come from different tables or passages of the source.
What was measured:
[1] = system: subjects with EoE (safety analysis set); assay: Clinical trial of FP ODT: treatment-emergent adverse events; assay type: in vivo, human
Method: (§1) Subjects that participated in Part 1 studies were randomized and administered a treatment selected from: • (a) 1.5 mg HS: Placebo 30 minutes after breakfast and 1.5 mg HS (at bedtime); • (b) 1.5 mg BID: 1.5 mg 30 minutes after breakfast and at bedtime; total daily dose of 3 mg; • (c) 3 mg HS: Placebo 30 minutes after breakfast and 3 mg at bedtime; and • (d) 3 mg BID: 3.0 mg 30 minutes after breakfast and at bedtime; total daily dose of 6 mg.
Patient Population: 105 subjects received at least 1 dose of study drug in Part 1 of the study safety analysis set (SAF population), and 92 subjects ([…]) of those subjects completed Week 14. […] Subjects were classified according to their randomized treatment.
Safety endpoints were measured such as Frequency of treatment-emergent adverse event (TEAEs); TEAEs leading to discontinuation; Treatment-emergent serious adverse events (SAEs); Percentage of subjects with serum cortisol level ≤5 μg/dL (≤138 nmol/L) or abnormal adrenocorticotropic hormone (ACTH) stimulation test (serum cortisol <16 μg/dL [≤440 nmol/L] at 60 minutes); The number of subjects discontinuing for HPA axis suppression will be recorded; and frequency of oral and esophageal candidiasis.

[2] = cited from earlier work
[3] = system: subjects with strictures and/or rings and EoE; assay: Clinical trial of FP ODT: dysphagia episodes (symptom response); assay type: in vivo, human; details: subgroup with strictures and/or Grade 2 rings at baseline, Week 12
Method: (§2) A clinical trial was performed to evaluate the effect of an orally disintegrating tablet (“ODT”) comprising fluticasone propionate (FP). A randomised, double-blind, placebo-controlled, multicentre, dose-ranging, and maintenance study of FP in subjects (>18 and <75 years of age) with strictures and/or rings and EoE. The trial examined four doses of FP to define the exposure-response of FP and the minimum effective dose to minimize significant hypothalamic-pituitary-adrenal (HPA) axis effects. The study (as shown in FIG. 1) was designed as follows. • (a) Screening: Patients with a confirmed diagnosis or presumptive diagnosis of EoE (including identifying strictures and/or rings) were selected for the study. An EoE diagnosis was confirmed by symptoms, histology, and historical documentation of failed treatment on >8 weeks of high-dose proton pump inhibitor (PPI). A high-dose PPI was defined as administration of a total dose of 20 to 40 mg of a marketed PPI once or twice daily.
as §1, with “mg. […]” for “mg.”

[4] = system: subjects with strictures and/or rings and EoE; assay: Clinical trial of FP ODT: histologic response (peak eosinophils/HPF in oesophageal biopsies); assay type: in vivo, human; details: subgroup with strictures and/or Grade 2 rings at baseline, Week 12
Method: as §2, §1
During Part 1 (Induction, Day 1 to Week 14), subjects received their randomized treatment for 14 weeks. At Week 12, the subjects underwent a response assessment, including an oesophagogastroduodenoscopy (EGD) to assess endoscopic and histologic status. Histologic responders and non-responders (at Week 12) entered Part 2.
The primary endpoint was the histologic responder rate at Week 12 of Part 1, […] 5 to 6 biopsies from the proximal and distal oesophagus (approximately 3 each) where the HPF area was […] (40 magnification lens with a 22 mm ocular).

[5] = all FP dosing groups, TOTAL (n = 43)

For “S-(fluoromethyl)-6α,9-difluoro-11β, 17-dihydroxy-16α-methyl-3-oxoandrosta-1, 4-diene-17β-carbothioate, 17-propanoate [FP]”, the “At least 1 TEAE, (%)” value ([1]; FP 1.5 mg BID (n = 23)) was “(74) %”, the “Maximum severity of TEAE: Mild, (%)” value ([1]; FP 1.5 mg BID (n = 23)) was “(61) %” and the “Maximum severity of TEAE: Moderate, (%)” value ([1]; FP 1.5 mg BID (n = 23)) was “(13) %”. The “TEAE leading to study discontinuation, (%)” value (shortened to “TEAE leading … (%)”) ([1]; FP 1.5 mg BID (n = 23)) was “(9) %”, the “TEAE of special interest, (%)” value ([1]; FP 1.5 mg BID (n = 23)) was “(13) %” and the “TEAE related to study drug, (%)” value ([1]; FP 1.5 mg BID (n = 23)) was “(22) %”. The “At least 1 TEAE, (%)” value ([1]; FP 1.5 mg HS (n = 21)) was “(62) %”, the “Maximum severity of TEAE: Mild, (%)” value ([1]; FP 1.5 mg HS (n = 21)) was “(52) %” and the “Maximum severity of TEAE: Moderate, (%)” value ([1]; FP 1.5 mg HS (n = 21)) was “(5) %”. For the same substance, the “Maximum severity of TEAE: Severe, (%)” value ([1]; FP 1.5 mg HS (n = 21)) was “(5) %”, the “TEAE related to study drug, (%)” value ([1]; FP 1.5 mg HS (n = 21)) was “(10) %” and the “At least 1 TEAE, (%)” value ([1]; FP 3 mg BID (n = 20)) was “(85) %”. For the same substance, the “Maximum severity of TEAE: Mild, (%)” value ([1]; FP 3 mg BID (n = 20)) was “(60) %”, the “Maximum severity of TEAE: Moderate, (%)” value ([1]; FP 3 mg BID (n = 20)) was “(25) %” and the “TEAE leading … (%)” value ([1]; FP 3 mg BID (n = 20)) was “(5) %”. The “TEAE of special interest, (%)” value ([1]; FP 3 mg BID (n = 20)) was “(35) %”, the “TEAE related to study drug, (%)” value ([1]; FP 3 mg BID (n = 20)) was “(50) %” and the “At least 1 TEAE, (%)” value ([1]; FP 3 mg HS (n = 21)) was “(76) %”. The “Maximum severity of TEAE: Mild, (%)” value ([1]; FP 3 mg HS (n = 21)) was “(29) %”, the “Maximum severity of TEAE: Moderate, (%)” value ([1]; FP 3 mg HS (n = 21)) was “(43) %” and the “Maximum severity of TEAE: Severe, (%)” value ([1]; FP 3 mg HS (n = 21)) was “(5) %”. The “Serious TEAE, (%)” value ([1]; FP 3 mg HS (n = 21)) was “(5) %”, the “TEAE of special interest, (%)” value ([1]; FP 3 mg HS (n = 21)) was “(5) %” and the “TEAE related to study drug, (%)” value ([1]; FP 3 mg HS (n = 21)) was “(29) %”. The “At least 1 TEAE, (%)” value ([1]; Total FP (n = 85)) was 74%, the “Maximum severity of TEAE: Mild, (%)” value ([1]; Total FP (n = 85)) was 51% and the “Maximum severity of TEAE: Moderate, (%)” value ([1]; Total FP (n = 85)) was 21%. For the same substance, the “Maximum severity of TEAE: Severe, (%)” value ([1]; Total FP (n = 85)) was 2 (2) %, the “Serious TEAE, (%)” value ([1]; Total FP (n = 85)) was 1 (1) % and the “TEAE leading … (%)” value ([1]; Total FP (n = 85)) was 4%. For the same substance, the “TEAE of special interest, (%)” value ([1]; Total FP (n = 85)) was 13%, the “TEAE related to study drug, (%)” value ([1]; Total FP (n = 85)) was 25% and the Solubility ([2]; acetone, dichloromethane, ethyl acetate and chloroform) was “sparingly soluble”. The Solubility ([2]; dimethyl sulfoxide and dimethylformamide) was “freely soluble”, the Solubility ([2]; methanol and 95% ethanol) was “slightly soluble” and the Solubility ([2]; water) was “practically insoluble”. The “Symptoms Responder Rate (≤50% reduction dysphagia episodes), %” value ([3]; FP 1.5 mg BID (n = 12)) was 42%, the “Symptoms Responder Rate (≤50% reduction dysphagia episodes), %” value ([3]; FP 1.5 mg HS (n = 13)) was 77% and the “Symptoms Responder Rate (≤50% reduction dysphagia episodes), %” value ([3]; FP 3 mg BID (n = 7)) was 57%. The “Symptoms Responder Rate (≤50% reduction dysphagia episodes), %” value ([3]; FP 3 mg HS (n = 11)) was 73%, the “Symptoms Responder Rate (≤50% reduction dysphagia episodes), %” value [3, 5] was 63% and the “Histology Responder Rate, %” value ([4]; FP 1.5 mg BID (n = 12)) was 100%. The “Histology Responder Rate, %” value ([4]; FP 1.5 mg HS (n = 13)) was 54%, the “Histology Responder Rate, %” value ([4]; FP 3 mg BID (n = 7)) was 86% and the “Histology Responder Rate, %” value ([4]; FP 3 mg HS (n = 11)) was 82%. For the same substance, the “Histology Responder Rate, %” value [4, 5] was 79%.

From US20240207288A1, “METHODS OF TREATING ESOPHAGEAL STRICTURES” (Ellodi Pharmaceuticals, L.P., priority 2021, published 2024)
